# Reference: patent US20030225002A1, “Co-therapy for the treatment of migraine comprising anticonvulsant derivatives and anti-migraine agents” (priority 2002, published 2003)
# Assays:
# [1] = system: subjects with migraine; assay: Clinical Study Trials #1 and #2: severity of migraine headaches, topiramate with triptan rescue therapy; format: in vivo, human; conditions: for Severity of Migraine Headaches, Baseline / Severity of Migraine Headaches, Double-Blind: triptan rescue therapy; for Severity of Migraine Headaches, Double-Blind: Double-Blind Phase; for Severity of Migraine Headaches, Difference: Double-Blind minus Baseline
# Procedure: (§1) The primary objective of these studies was to evaluate the safety and efficacy of three doses of topiramate (50, 100, and 200 mg/day) versus placebo in the prophylaxis of migraine based on the change in the monthly (28 day) migraine period rate from the Prospective Baselin,e Period to the Double-Blind Phase. The secondary objectives for the studies were to assess dose response relationship, and to evaluate the effect of prophylactic treatment with topiramate (50, 100, and 200 mg/day) versus placebo on Health-Related Quality of Life (HRQL).
# (§2) The studies were randomized, double-blind, placebo-controlled, parallel-group, multicenter studies. Male and female subjects were randomized equally to the four treatment groups.
# (§3) While the IHS criteria was used to establish the diagnosis at study entry, the evaluation of efficacy was based on migraine periods. A migraine period was defined as the length of time between the onset and cessation of painful migraine symptoms. This period could last up to, but no longer than, 24 hours. If the painful symptoms persisted more than 24 hours after their initial onset, this was considered to be a new, distinct migraine period. If symptoms recurred within 24 hours of the initial onset, this was considered part of the same, initial period.
# (§4) Subjects who completed the Baseline Phase and met the entry criteria were randomized to one of four treatment groups: 50 mg/day topiramate, 100 mg/day topiramate, 200 mg/day topiramate or placebo. The Double-Blind Phase had two periods: Titration and Maintenance, which are described in more detail below.
# (§5) The Titration Period immediately followed the Baseline Phase and extended for eight weeks (56 days). During this period, subjects randomized to topiramate were started at a dose of 25 mg/day and the daily dose was increased by 25 mg weekly until they reach their assigned dose (or maximum tolerated dose, whichever is less). From the third week of Titration until the end of the Maintenance Period, a maximum of two dose level reductions were permitted for unacceptable tolerability problems. If the subject was still in the Titration Period after a dose reduction, rechallenge may have occurred in an attempt to achieve the subject's assigned dose, and, if unsuccessful, the dose may have been reduced again to the original reduced dose. Subjects who had their study medication dose decreased twice, and were still experiencing unacceptable tolerability problems that warranted additional dose reductions, exited the study. Clinic visits occurred on Day 29 (Visit 3) and Day 57 (Visit 4/End of Titration).
# (§6) During this 18-week period, the subjects remained on the dose of study medication reached at the end of the Titration Period (the assigned dose or the maximum tolerated dose). If the subject experienced unacceptable tolerability problems, the dose was reduced, only one dose reduction was permitted in the maintenance. No rechallenge was permitted during the Maintenance Period, so that subject continued on the reduced dose for the remainder of the period. Subjects who already had their study medication dose decreased by two levels, and were still experiencing unacceptable tolerability problems that warranted additional dose reductions exited the study. Clinic visits occurred on Day 85 (Visit 5), Day 113 (Visit 6), Day 141 (Visit 7) and Day 183 (Visit 8/ Double-Blind Final Visit or Early Withdrawal).
# (§7) Subjects were randomized to one of four treatment groups: a) placebo, b) 50 mg/day topiramate, c) 100 mg/day topiramate, or d) 200 mg/day topiramate. All subjects received study medication in a b.i.d. dosing regimen except during the first week of Titration, during which they took single evening doses.
# (§8) In keeping with good pain management practices, subjects enrolled in these studies were permitted to take acute abortive/rescue medication as indicated for the treatment of pain during migraine/headache attacks. […]
# [2] = system: subjects with migraine; assay: Clinical Study Trials #1 and #2: severity of nausea associated with migraine headaches; format: in vivo, human; conditions: for Severity of Nausea Associated Migraine Headaches, Baseline / Severity of Nausea Associated Migraine Headaches, Double-Blind / Severity of Nausea Associated Migraine Headaches, Difference: scale 0 to 3; for Severity of Nausea Associated Migraine Headaches, Baseline / Severity of Nausea Associated Migraine Headaches, Double-Blind: triptan rescue therapy; for Severity of Nausea Associated Migraine Headaches, Double-Blind: Double-Blind Phase; for Severity of Nausea Associated Migraine Headaches, Difference: Double-Blind minus Baseline
# Procedure: as §1, §2, §3, §4, §5, §6, §7, §8
# [3] = system: subjects with migraine; assay: Clinical Study Trials #1 and #2: severity of photophobia associated with migraine headaches; format: in vivo, human; conditions: for Severity of Photophobia Associated Migraine Headaches, Baseline / Severity of Photophobia Associated Migraine Headaches, Double-Blind / Severity of Photophobia Associated Migraine Headaches, Difference: scale 0 to 3; for Severity of Photophobia Associated Migraine Headaches, Baseline / Severity of Photophobia Associated Migraine Headaches, Double-Blind: triptan rescue therapy; for Severity of Photophobia Associated Migraine Headaches, Double-Blind: Double-Blind Phase; for Severity of Photophobia Associated Migraine Headaches, Difference: Double-Blind minus Baseline
# Procedure: as §1, §2, §3, §4, §5, §6, §7, §8
# [4] = system: subjects with migraine; assay: Clinical Study Trials #1 and #2: severity of phonophobia associated with migraine headaches; format: in vivo, human; conditions: for Severity of Phonophobia Associated With Migraine Headaches, Baseline / Severity of Phonophobia Associated With Migraine Headaches, Double-Blind / Severity of Phonophobia Associated With Migraine Headaches, Difference: scale 0 to 3; for Severity of Phonophobia Associated With Migraine Headaches, Baseline / Severity of Phonophobia Associated With Migraine Headaches, Double-Blind: triptan rescue therapy; for Severity of Phonophobia Associated With Migraine Headaches, Double-Blind: Double-Blind Phase; for Severity of Phonophobia Associated With Migraine Headaches, Difference: Double-Blind minus Baseline
# Procedure: as §1, §2, §3, §4, §5, §6, §7, §8
# [5] = system: persistent daily headache with migraine features; assay: Case Study 1: persistent daily headache with migraine features; format: in vivo, human; conditions: topiramate 75 mg/day with INDERAL at 20 mg/day
# Source text: The patient was a person with persistent daily headache with migraine features.
# [6] = system: refractory migraine (migraine without aura); assay: Case Study 2: refractory migraine without aura; format: in vivo, human; conditions: 75 mg/day topiramate, 20 mg/day CORGARD and 20 mg/day CELEXA
# Procedure: The patient was a person with a lifelong history of refractory migraine (migraine without aura), averaging 8 migraines per month. […] The patient was started on topiramate at 25 mg/day, with dosage increasing to 75 mg/day. Simultaneously, the beta-blocker, CORGARD dosage was decreased to 20 mg/day, with CELEXA at 20 mg/day also continued.
# [7] = system: severe refractory migraine with and without aura; assay: Case Study 3: severe refractory migraine with and without aura; format: in vivo, human
# Procedure: The patient was a person with a twenty-year history of severe refractory migraine with and without aura. […] The patient was started on topiramate at 50 mg/day increasing to 100 mg in the morning and 100 mg in the evening, in combination with INDERAL at 160 mg/day. […] After about 6 months, the patient was prescribed EFFEXOR XR (vanlafaxine HCl) at 37 mg/day, an increased topiramate dose of 125 mg in the morning and 150 mg in the evening, and 160 mg/day INDERAL.
# [8] = system: kindled epilepsy; conditions: animal model of kindled epilepsy; cited from earlier work
# [9] = patients taking 100 mg topiramate in Study 1
# [10] = topiramate with triptan rescue medication vs triptan rescue alone, measurable at 50 mg and 100 mg
smiles,measurement,setting,value
"CC1(C)O[C@@H]2[C@@H](CO[C@@]3(COS(N)(=O)=O)OC(C)(C)O[C@@H]23)O1 [topiramate, 2,3:4,5-bis-O-(1-methylethylidene)-β-D-fructopyranose sulfamate]","Severity of Migraine Headaches, Baseline","[1]; TPM 50 mg, scale 0 to 3 (0=none, 3=severe)",2.32
same,"Severity of Migraine Headaches, Double-Blind","[1]; TPM 50 mg, scale 0 to 3",2.18
same,"Severity of Migraine Headaches, Difference","[1]; TPM 50 mg, scale 0 to 3",−0.13
same,"Severity of Migraine Headaches, Baseline","[1]; TPM 100 mg, scale 0 to 3",2.33
same,"Severity of Migraine Headaches, Double-Blind","[1]; TPM 100 mg, scale 0 to 3",2.14
same,"Severity of Migraine Headaches, Difference","[1]; TPM 100 mg, scale 0 to 3",−0.19
same,"Severity of Migraine Headaches, Baseline","[1]; TPM 200 mg, scale 0 to 3",2.26
same,"Severity of Migraine Headaches, Double-Blind","[1]; TPM 200 mg, scale 0 to 3",2.16
same,"Severity of Migraine Headaches, Difference","[1]; TPM 200 mg, scale 0 to 3",−0.10
same,Statistical significance of effect on severity of migraine headaches (in words),[1]; patient group taking 100 mg topiramate,Statistically significant results
same,Effect on severity of migraine headaches (in words),"[1]; topiramate in combination with triptan rescue medication vs rescue medications alone, 50, 100 and 200 mg",decrease in the severity of migraine headaches
same,"Severity of Nausea Associated Migraine Headaches, Baseline",[2]; TPM 50 mg,1.17
same,"Severity of Nausea Associated Migraine Headaches, Double-Blind",[2]; TPM 50 mg,1.17
same,"Severity of Nausea Associated Migraine Headaches, Difference",[2]; TPM 50 mg,−0.01
same,"Severity of Nausea Associated Migraine Headaches, Baseline",[2]; TPM 100 mg,1.22
same,"Severity of Nausea Associated Migraine Headaches, Double-Blind",[2]; TPM 100 mg,1.12
same,"Severity of Nausea Associated Migraine Headaches, Difference",[2]; TPM 100 mg,−0.10
same,"Severity of Nausea Associated Migraine Headaches, Baseline",[2]; TPM 200 mg,1.12
same,"Severity of Nausea Associated Migraine Headaches, Double-Blind",[2]; TPM 200 mg,1.09
same,"Severity of Nausea Associated Migraine Headaches, Difference",[2]; TPM 200 mg,−0.03
same,Statistical significance of effect on severity of nausea (in words),[2]; patients taking 100 mg topiramate,Statistically significant differences in the severity of nausea
same,Effect on severity of nausea associated with migraine headaches (in words),"[2]; topiramate with triptan class rescue medications, measurable at 100 mg and 200 mg",decrease in the severity of nausea
same,"Severity of Photophobia Associated Migraine Headaches, Baseline",[3]; TPM 50 mg,1.83
same,"Severity of Photophobia Associated Migraine Headaches, Double-Blind",[3]; TPM 50 mg,1.68
same,"Severity of Photophobia Associated Migraine Headaches, Difference",[3]; TPM 50 mg,−0.14
same,"Severity of Photophobia Associated Migraine Headaches, Baseline",[3]; TPM 100 mg,1.77
same,"Severity of Photophobia Associated Migraine Headaches, Double-Blind",[3]; TPM 100 mg,1.58
same,"Severity of Photophobia Associated Migraine Headaches, Difference",[3]; TPM 100 mg,−0.19
same,"Severity of Photophobia Associated Migraine Headaches, Baseline",[3]; TPM 200 mg,1.62
same,"Severity of Photophobia Associated Migraine Headaches, Double-Blind",[3]; TPM 200 mg,1.57
same,"Severity of Photophobia Associated Migraine Headaches, Difference",[3]; TPM 200 mg,−0.05
same,"Statistical significance of effect, text under Table 4 (in words)",[3]; [9],Statistically significant differences in the severity of nausea
same,Effect on severity of associated photophobia (in words),[3]; [10],decreased the severity of associated photophobia
same,"Severity of Phonophobia Associated With Migraine Headaches, Baseline",[4]; TPM 50 mg,1.65
same,"Severity of Phonophobia Associated With Migraine Headaches, Double-Blind",[4]; TPM 50 mg,1.59
same,"Severity of Phonophobia Associated With Migraine Headaches, Difference",[4]; TPM 50 mg,−0.06
same,"Severity of Phonophobia Associated With Migraine Headaches, Baseline",[4]; TPM 100 mg,1.72
same,"Severity of Phonophobia Associated With Migraine Headaches, Double-Blind",[4]; TPM 100 mg,1.58
same,"Severity of Phonophobia Associated With Migraine Headaches, Difference",[4]; TPM 100 mg,−0.15
same,"Severity of Phonophobia Associated With Migraine Headaches, Baseline",[4]; TPM 200 mg,1.50
same,"Severity of Phonophobia Associated With Migraine Headaches, Double-Blind",[4]; TPM 200 mg,1.47
same,"Severity of Phonophobia Associated With Migraine Headaches, Difference",[4]; TPM 200 mg,−0.03
same,"Statistical significance of effect, text under Table 5 (in words)",[4]; [9],Statistically significant differences in the severity of nausea
same,Effect on severity of associated phonophobia (in words),[4]; [10],decreased the severity of associated phonophobia
same,Effect on daily headaches,[5],significant improvement and resolution of the daily headaches
same,Migraine headache frequency on treatment,[5],approximately one per week
same,Headache frequency,[6],significant decrease in headache frequency
same,Headache-free time,[6],no headache for up to four weeks
same,Response of severe refractory migraine,[7]; topiramate 100 mg in the morning and 100 mg in the evening with INDERAL at 160 mg/day,"initial positive response, but the headaches broke through"
same,Response of severe refractory migraine,"[7]; topiramate 125 mg morning and 150 mg evening, EFFEXOR XR 37 mg/day, INDERAL 160 mg/day",Modest but sustained improvement
same,Block of seizures,[8],effectively block seizures
